Data published in patent US20210401776A1, “METHOD OF TREATING […] SYNDROMES USING FENFLURAMINE ENANTIOMERS” (ZOGENIX INTERNATIONAL LIMITED, priority 2018, published 2021).
Entries after “also recorded” stand apart in the source; their conditions may differ.

How the values were obtained:
[1] = test system: homozygous scn1Lab−/− mutants; assay: zebrafish locomotor assay (total distance in large movements, lardist); format: in vivo, zebrafish (Danio rerio)
Excerpt: (Baraban et al, 2013). Additional phenotypes of these mutants include: abnormal optokinetic response (OKR; 5 dpf); darkened pigmentation; death by 14 dpf; spontaneous seizure-like activity; abnormal (forebrain electrographic activity (3-7 dpf); seizure activity; lower levels of serotonin in scn1lab^−/− head homogenates at 7 dpf; zebrafish express orthologs of human serotonin (5HT) receptor subtypes at 5 dpf; nighttime hyperactivity (5 dpf); in open field-increased thigmotaxis. decreased movement (at 5 dpf); no differences in GABAergic neurons compared to wild type (5 dpf); 5-HT2a (hitr2aa/b) and S-HT2c; (htr2c11) orthologs expressed in larval heads in wild-type and scn1lab−/− mutants and in adult wild-type brains.
To assay the locomotor activity of homozygous scn1Lab−/− mutants and control WT scn1Lab+/+, zebrafish larvae were placed one larva per well in a 96-well plate in 100 μL of embryo medium from 4 to 8 days post-fertilization (dpf). Each day the larvae are tracked in an automated tracking device (ZebraBox™ apparatus; Viewpoint, Lyon, France) for 10 min after 30 min habituation (100-second integration interval). All recordings were performed at the same time during daytime period. The total distance in large movements was recorded and quantified using ZebraLab™ software (Viewpoint, Lyon, France). Data was pooled together from at least three independent experiments with at least 24 larvae per condition.
Scn1Lab^−/− mutants and WT scn1Lab+/+ larvae are arrayed in the same plate and treated at 6 days post fertilization (dpf) with the test compounds (25 μM), or VHC in individual wells of a 96-well plate. After incubation at 28° C. on a 14/10 hour light/dark cycle and 30-min chamber habituation 6 and 7 dpf larvae are tracked for locomotor activity for 10 min (100-second integration interval) under dark conditions. An incubation time of 1.5 hours is further referred to as short treatment (6 dpf). Furthermore, these larvae are analyzed after more than 22 hours incubation (7 dpf), i.e. long treatment. The total locomotor activity is quantified using the parameter lardist and plotted in cm. Data for each compound is pooled together from multiple independent experiments with at least 9 larvae per treatment condition.

[2] = in vivo; cited from earlier work
[3] = test system: homozygous scn1Lab−/− mutants; assay: epileptiform activity, open-field recordings in larval forebrain (LFP assay); format: in vivo, zebrafish (Danio rerio)
dizocilpine-treated mice [4] = assay: dizocilpine-induced learning deficits, statements covering both tests (Y-maze and passive avoidance); format: in vivo, Male Swiss OF-1 mice; conditions: mouse, in vivo
Method: Experiments were conducted to determine the dose-response effects of fenfluramine (FEN) and norfenfluramine (NOR), racemate and (+)- and (−)-isomers, in an in vivo mouse model; the dizocilpine-induced amnesia model (described below) is used to test responses to drugs acting at the sigma-1 receptor (S1R) (Maurice et al., 1994a,b; Maurice, et al., 1998, Neuroscience 83:413-428).
The drugs were administered intraperitoneally (“ip” or “IP”) with dizocilpine (0.15 mg/kg) and tested in the spontaneous alternation test on day 1 and in the passive avoidance test on days 2-3.
The apparatus consisted of a 2-compartment box, with one illuminated with white polyvinylchloride (PVC) walls and a transparent cover (15×20×15 cm high), one with black polyvinylchloride walls and cover (15×20×15 cm high), and a grid floor. A guillotine door separated each compartment. A 60 W lamp was positioned 40 cm above the apparatus lit the white compartment during the experimental period. Scrambled foot shocks (0.3 mA for 3 s) were delivered to the grid floor using a shock generator scrambler (Lafayette Instruments, Lafayette, Mass., USA). The guillotine door was initially closed during the training session. Each mouse was placed into the white compartment. After 5 s, the door was raised. When the mouse entered the darkened compartment and placed all its paws on the grid floor, the door was gently closed and the 3-scrambled foot shock was delivered for 3 s. The step-through latency, i.e., the latency spent to enter the dark compartment, and the level of sensitivity to the shock were recorded. The latter was evaluated as: 0=no sign; 1=flinching reactions; 2=flinching and vocalization reactions. The retention test was carried out 24 h after training. Each mouse was placed again into the white compartment. After 5 s, the door was raised. The step-through latency was recorded up to 300 s. Animals entered the darkened compartment or were gently pushed into it and the escape latency, i.e., the time spent to return into the white compartment, was also measured up to 300 s. Results were expressed as median and interquartile (25%-75%) range.
The Y-maze is made of grey PVC. Each arm is 40 cm long, 13 cm high, 3 cm wide at the bottom, 10 cm wide at the top, and converged at an equal angle. Each mouse was placed at the end of one arm and allowed to move freely through the maze during an 8-min session. The series of arm entries, including possible returns into the same arm, were checked visually. An alternation was defined as entries into all three arms on consecutive occasions. The number of maximum alternations was therefore the total number of arm entries minus two and the percentage of alternation was calculated as: actual alternations/maximum alternations)×100. Parameters included the percentage of alternation (memory index) and total number of arm entries (exploration index).

[5] = test system: WT scn1Lab+/+ zebrafish larvae; assay: maximal tolerated concentration (MTC); format: in vivo, zebrafish (Danio rerio); conditions: no signs of toxicity in 12 out of 12 larvae within 48 hours of exposure
Method: To evaluate the maximal tolerated concentration (MTC) of each compound, 6 dpf-old WT scn1Lab+^+/+ zebrafish larvae were incubated in a 96-well plate (tissue culture plate, flat bottom, FALCON®, USA) with different concentrations of compound or VHC at 28° C. on a 14/10 hour light/dark cycle under standard aquaculture conditions (medium is replenished daily). Each larva was individually checked under the microscope during a period of 48 hours for the following signs of toxicity: decreased or no touch response upon a light touch of the tail, loss of posture, body deformation, edema, changes in heart rate or circulation and death. […] MTC was determined as 100 micromolar (μM) for (+)-fenfluramine and both norfenfluramine enantiomers. A MTC of 50 μM was determined for (−)-fenfluramine.

dizocilpine-treated mice [6] = assay: spontaneous alternation in the Y-maze, dizocilpine-induced amnesia model; format: in vivo, Male Swiss OF-1 mice
dizocilpine-treated mice [7] = assay: step-through passive avoidance, dizocilpine-induced amnesia model; format: in vivo, Male Swiss OF-1 mice

CCN[C@@H](C)Cc1cccc(C(F)(F)F)c1 [(+)-Fenfluramine, (2S)-N-ethyl-1-[3-(trifluoromethyl)phenyl]propan-2-amine]
Conclusions ([1]; Table 1, locomotor and LFP assays): (+)-FFA is more effective than racemic FFA
antiseizure activity in the zebrafish locomotor assay ([1]; scn1Lab−/− mutants): more efficacious than (−)-fenfluramine
reduction in seizure behavior ([1]; scn1Lab−/− mutants, fixed concentration, FIG. 3): 84%
potency in treating symptoms of epilepsy compared to levofenfluramine ([1]; zebrafish, in vivo): approximately twice
mean elimination half-life [2]: 19 h
anti-epileptiform activity (frequency and cumulative duration of epileptiform events over 10 minutes) ([3]; 50 micromolar, FIGS. 4 and 5): comparable
LFP Assay ([3]; Table 1, 25, 59 and 100 μM, oral via embryo medium): Most effective in reducing spikes; also recorded: Normal dose-response; higher
behavior in vivo at S1R (dizocilpine-treated mice [4]): behaved in vivo as S1R positive modulators
maximum tolerated concentration (MTC) [5]: 100 µM
PP (%) (dizocilpine-treated mice [6]; Table 3 Y-Maze, drug alone 0.1 mg/kg IP): 1.3 ± 7.9%
PP (%) (dizocilpine-treated mice [6]; Table 3 Y-Maze, drug alone 0.3 mg/kg IP): 37.9 ± 9.4 ^2%
PP (%) (dizocilpine-treated mice [6]; Table 5 YMT, drug alone 0.1 mg/kg ip): 8.68 ± 8.7%
PP (%) (dizocilpine-treated mice [6]; Table 5 YMT, drug alone 0.3 mg/kg ip): 40.2 ± 11.3^3%
PP (%) (dizocilpine-treated mice [6]; Table 6 YMT, drug alone 0.1 mg/kg ip): 0.4 ± 11.5%
PP (%) (dizocilpine-treated mice [6]; Table 6 YMT, drug alone 0.3 mg/kg ip): 46.7 ± 8.9 ^3%
PP (%) (dizocilpine-treated mice [7]; Table 3 StepThrough/PassiveAvoidance, drug alone 0.1 mg/kg IP): 9.0 ± 15.8%
PP (%) (dizocilpine-treated mice [7]; Table 3 StepThrough/PassiveAvoidance, drug alone 0.3 mg/kg IP): 24.8 ± 14.9 ^4%
PP (%) (dizocilpine-treated mice [7]; Table 5 STPA, drug alone 0.1 mg/kg ip): 11.6 ± 13.6%
PP (%) (dizocilpine-treated mice [7]; Table 5 STPA, drug alone 0.3 mg/kg ip): 35.2 ± 14.2^6%
PP (%) (dizocilpine-treated mice [7]; Table 6 STPA, drug alone 0.1 mg/kg ip): 15.6 ± 17.3%
PP (%) (dizocilpine-treated mice [7]; Table 6 STPA, drug alone 0.3 mg/kg ip): 31.9 ± 16.3 ^6%
